Measured values as given in ChEMBL document CHEMBL5050844 (2019).

Legend:
[1] = Induction of anti-CD3 antibodies-stimulated human T cell activation at 1 uM assessed fold increase in IL-2 secretion measured by ELISA assay; assay type: functional, T cell line; also: reference of the scale not given here
[2] = Induction of anti-CD3/CD28 antibodies-stimulated human T cell activation at 0.3 uM assessed fold increase in IL-2 secretion measured by ELISA assay; assay type: functional, T cell line
[3] = Induction of anti-CD3 antibodies-stimulated human T cell activation at 1 uM assessed fold increase in CD25 expression measured by ELISA assay; assay type: functional, T cell line; also: reference of the scale not given here
[4] = Induction of anti-CD3/CD28 antibodies-stimulated human T cell activation at 0.3 uM assessed fold increase in CD25 expression measured by ELISA assay; assay type: functional, T cell line
[5] = Induction of anti-CD3/CD28 antibodies-stimulated human T cell activation at 1 uM assessed fold increase in IL-2 secretion measured by ELISA assay; assay type: functional, T cell line
[6] = biological target: E3 ubiquitin-protein ligase CBL-B (Homo sapiens, UniProt Q13191); assay: Inhibition of N-terminal Avi-tagged human CBL-B (36 to 427 residues) incubated with 60 nM Src kinase for 1.5 hrs followed by incubation with fluorescently labeled UbcH5B-Ub for 1 hr and measured by TR-FRET assay; assay type: single protein
[7] = Induction of anti-CD3/CD28 antibodies-stimulated human T cell activation at 1 uM assessed fold increase in CD25 expression measured by ELISA assay; assay type: functional, T cell line

Chain of E3 ubiquitin-protein ligase CBL-B (Q13191 whole entry, the tested form may be a part): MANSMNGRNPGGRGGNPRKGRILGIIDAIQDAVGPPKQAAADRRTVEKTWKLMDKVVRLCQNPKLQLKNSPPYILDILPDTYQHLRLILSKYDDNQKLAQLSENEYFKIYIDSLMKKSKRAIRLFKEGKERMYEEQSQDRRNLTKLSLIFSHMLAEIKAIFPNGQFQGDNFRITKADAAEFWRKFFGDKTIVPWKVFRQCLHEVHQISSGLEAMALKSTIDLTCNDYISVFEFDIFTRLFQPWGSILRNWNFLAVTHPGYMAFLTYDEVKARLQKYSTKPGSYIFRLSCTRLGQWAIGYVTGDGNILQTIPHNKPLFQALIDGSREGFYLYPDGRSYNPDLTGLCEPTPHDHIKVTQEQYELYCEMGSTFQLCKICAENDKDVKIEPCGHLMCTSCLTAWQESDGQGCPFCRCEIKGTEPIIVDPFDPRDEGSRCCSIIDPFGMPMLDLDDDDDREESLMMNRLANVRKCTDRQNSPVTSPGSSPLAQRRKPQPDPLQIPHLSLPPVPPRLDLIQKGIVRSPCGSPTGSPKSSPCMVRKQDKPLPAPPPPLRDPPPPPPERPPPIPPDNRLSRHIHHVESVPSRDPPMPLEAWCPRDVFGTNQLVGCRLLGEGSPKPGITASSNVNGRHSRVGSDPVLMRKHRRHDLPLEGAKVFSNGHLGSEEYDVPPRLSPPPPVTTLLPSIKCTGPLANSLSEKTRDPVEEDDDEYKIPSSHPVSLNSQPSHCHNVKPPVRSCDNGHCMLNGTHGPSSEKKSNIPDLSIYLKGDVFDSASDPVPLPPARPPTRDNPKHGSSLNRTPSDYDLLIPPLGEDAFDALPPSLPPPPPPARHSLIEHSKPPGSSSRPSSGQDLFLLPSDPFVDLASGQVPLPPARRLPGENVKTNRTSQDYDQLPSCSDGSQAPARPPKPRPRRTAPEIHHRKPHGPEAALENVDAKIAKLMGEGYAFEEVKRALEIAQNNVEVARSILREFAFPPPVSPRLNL

IC50 [6] [nM] | SMILES | fold change (FC) [1] | fold change (FC) [2] | fold change (FC) [3] | fold change (FC) [4] | fold change (FC) [5] | fold change (FC) [7]
< 100 | Cn1cnnc1CC1(c2cccc(N3Cc4c(cc(N5CC(C(F)F)C5)cc4C(F)(F)F)C3=O)c2)COC1 | 0.051 | 2.51 | 0.801 | 1.01 | 5 | 1.01
< 100 | CN1CCN(c2cc3c(c(C(F)(F)F)c2)CN(c2cccc(C4(Cc5nncn5C)COC4)c2)C3=O)C(=O)C1 | 0.051 | 1.01 | 0.801 | 1.01 | 1.01 | 1.01
< 100 | Cn1cnnc1CC1(c2cccc(N3Cc4c(cc(CN5CCCC(F)(F)CC5)cc4C(F)(F)F)C3=O)c2)COC1 | >=0.201 | >=7.5 | >=1.001 | 1.01 | >=7.5 | 1.01
< 100 | Cn1cnnc1CC1(c2cccc(N3Cc4c(cc(CN5CCC(C)(F)C5)cc4C(F)(F)F)C3=O)c2)COC1 (stereo unspecified) | >=0.201 | >=7.5 | >=1.001 | 1.31 | >=7.5 | 1.31
< 100 | Cn1cnnc1CC1(c2cccc(N3Cc4c(cc(CN5CC6CC6(C)C5)cc4C(F)(F)F)C3=O)c2)COC1 (stereo unspecified) | >=0.201 | >=7.5 | >=1.001 | 1.01 | >=7.5 | 1.01
< 100 | CC1CN(c2cc3c(c(C(F)(F)F)c2)CN(c2cccc(C4(Cc5nncn5C)COC4)c2)C3=O)C1 | 0.101 | 1.01 | 0.601 | 1.01 | 2.51 | 1.01
< 100 | Cn1cnnc1CC1(c2cccc(N3Cc4c(cc(CN5CCC6(CC6)C5)cc4C(F)(F)F)C3=O)c2)CCC1 | >=0.201 | >=7.5 | >=1.001 | 1.31 | >=7.5 | 1.31
< 100 | C[C@@H](c1cc2c(c(C(F)(F)F)c1)CN(c1cccc(C3([C@H](F)c4nncn4C)COC3)c1)C2=O)N1CCC2(CC2)C1 (single isomer, unassigned) | >=0.201 | >=7.5 | >=1.001 | >=1.76 | >=7.5 | >=1.76
< 100 | CC(c1cc2c(c(C3CC3)n1)CN(c1cccc(C3(Cc4nncn4C)COC3)c1)C2=O)N1CCCC1 (stereo unspecified) | <=0.05 | 1.01 | 0.601 | 1.01 | 2.51 | 1.01
< 100 | Cn1cnnc1CC1(c2cccc(N3Cc4c(cc(CN5CCCC6CC65)cc4C(F)(F)F)C3=O)c2)COC1 (stereo unspecified) | >=0.201 | >=7.5 | >=1.001 | 1.01 | >=7.5 | 1.01
< 100 | Cn1cnnc1CC1(c2cccc(N3Cc4c(cc(CN5CCCC(F)(F)C5)cc4C(F)(F)F)C3=O)c2)COC1 | >=0.201 | >=7.5 | >=1.001 | 1.51 | >=7.5 | 1.51
< 100 | Cn1cnnc1CC1(c2cccc(N3Cc4c(cc(N5CCOC5=O)cc4C(F)(F)F)C3=O)c2)COC1 | <=0.05 | 1.01 | 0.601 | 1.01 | 2.51 | 1.01
< 100 | Cn1cnnc1CC1(c2cccc(N3Cc4c(cc(CN5CCC(C(F)F)CC5)cc4C(F)(F)F)C3=O)c2)COC1 | 0.151 | 5 | >=1.001 | 1.31 | >=7.5 | 1.31
< 100 | CC(c1cc2c(c(C3CC3)n1)CN(c1cccc(C3(Cc4nncn4C)COC3)c1)C2=O)N1CCC2(CC2)C1 (stereo unspecified) | 0.051 | 2.51 | 0.801 | 1.01 | 5 | 1.01

Second part, the compound before the results:

SMILES | IC50 [6] [nM] | fold change (FC) [1] | fold change (FC) [2] | fold change (FC) [3] | fold change (FC) [4] | fold change (FC) [5] | fold change (FC) [7]
Cn1cnnc1[C@@H](F)C1(c2cccc(N3Cc4c(cc(CN5CCCC5)cc4C(F)(F)F)C3=O)c2)COC1 | < 100 | >=0.201 | 5 | >=1.001 | >=1.76 | >=7.5 | >=1.76
Cc1conc1CC1(c2cccc(NC(=O)c3cc(CN4CC[C@H](O)C4)nc(C4CC4)n3)c2)COC1 | < 100 | >=0.201 | >=7.5 | >=1.001 | 1.31 | >=7.5 | 1.31
Cc1nc2c(o1)CCN(Cc1cc3c(c(C(F)(F)F)c1)CN(c1cccc(C4(Cc5nncn5C)COC4)c1)C3=O)C2 | < 100 | >=0.201 | 5 | >=1.001 | 1.01 | >=7.5 | 1.31
Cn1cnnc1CC1(c2cccc(NC(=O)c3cc(CN4CC[C@H](F)C4)nc(C(F)(F)F)n3)c2)COC1 | < 100 | 0.051 | 1.01 | 0.801 | 1.01 | 2.51 | 1.01
Cn1cnnc1CC1(c2cccc(NC(=O)c3cc(C4CC4)nc4ccnn34)c2)COC1 | < 100 | <=0.05 | 1.01 | 0.601 | 1.01 | 2.51 | 1.01
Cn1cnnc1C(F)(F)[C@](C)(F)c1cccc(NC(=O)c2cc(CN3CC[C@H](F)C3)nc(C3CC3)n2)c1 | < 100 | 0.051 | 2.51 | 0.801 | 1.01 | 5 | 1.01
Cn1cnnc1CC1(c2cccc(NC(=O)c3csc(C(F)(F)F)n3)c2)COC1 | < 100 | 0.051 | 1.01 | 0.601 | 1.01 | 1.01 | 1.01
Cn1cnnc1C(F)(F)C1(c2cccc(N3Cc4c(cc(CN5CC[C@H](F)C5)cc4C(F)(F)F)C3=O)c2)CC1 | < 100 | >=0.201 | 5 | >=1.001 | 1.01 | >=7.5 | 1.31
Cn1cnnc1CC1(c2cccc(NC(=O)c3cc(CN4CCCCC4)nc(C4CC4)n3)c2)COC1 | < 100 | >=0.201 | >=7.5 | >=1.001 | >=1.76 | >=7.5 | >=1.76
Cn1cnnc1CC1(c2cccc(N3Cc4c(cc(CN5CCS(=O)(=O)CC5)cc4C(F)(F)F)C3=O)c2)COC1 | < 100 | 0.101 | 2.51 | >=1.001 | 1.01 | 2.51 | 1.01
Cn1cnnc1CC1(c2cccc(N3Cc4c(cc(CN5Cc6cccnc6C5)cc4C(F)(F)F)C3=O)c2)COC1 | < 100 | >=0.201 | 2.51 | >=1.001 | 1.31 | >=7.5 | 1.31
Cn1cnnc1CC1(c2cccc(N3Cc4c(cc(CN5CC[C@H](CO)C(F)(F)C5)cc4C(F)(F)F)C3=O)c2)COC1 | < 100 | 0.151 | >=7.5 | >=1.001 | 1.31 | >=7.5 | 1.31
Cn1cnnc1CC1(c2cccc(N3Cc4c(ccnc4C(F)(F)F)C3=O)c2)COC1 | < 100 | <=0.05 | 1.01 | 0.601 | 1.01 | 1.01 | 1.01
Cc1conc1CC1(c2cccc(NC(=O)c3cc(CN4CCC5(CC5)C4)nc(C4CC4)n3)c2)COC1 | < 100 | >=0.201 | >=7.5 | >=1.001 | 1.31 | >=7.5 | 1.31
